Test results from US20250170099A1, “TREATMENT OF POSTNATAL DEPRESSION” (GH RESEARCH IRELAND LIMITED, priority 2022, published 2025).

System: Salmonella typhimurium TA98, TA100, TA1535, TA1537 and Escherichia coli WP2 uvrA pKM101
Experiment: Bacterial mutation test
Type: cell-based
Method: These conditions included treatments at concentrations up to 5000 μg/plate (the maximum recommended concentration according to current regulatory guidelines), in the absence and in the presence of a rat liver metabolic activation system (S-9).

Question: Which results are given for `COc1ccc2[nH]cc(CCN(C)C)c2c1` [5-MeO-DMT]?
Answer: in vitro genotoxicity assessment: negative; mutation induction (up to 5000 μg/plate, without and with S-9): did not induce mutation
